Where “and” joins values, the source holds several entries; their conditions need not be identical. Identical values can stand only once.
Assay: xn = mol fraction of the nth substance listed

ClC=C(Cl)Cl + CCCCOCCO
viscosity [mPa·s], 101.33 kPa
Settings | x1 = 0.1147 | x1 = 0.2158 | x1 = 0.3119 | x1 = 0.4264 | x1 = 0.5157 | x1 = 0.6108 | x1 = 0.687 | x1 = 0.8076 | x1 = 0.9043
303.15 K | 2.11 | 1.821 | 1.568 | 1.297 | 1.111 | 0.937 | 0.817 | 0.671 | 0.582
313.15 K | 1.646 | 1.451 | 1.271 | 1.074 | 0.934 | 0.806 | 0.718 | 0.608 | 0.537

ClC=C(Cl)Cl + CCCCO
viscosity [mPa·s], 101 kPa
Settings | x2 = 0.0983 | x2 = 0.2464 | x2 = 0.3954 | x2 = 0.5452 | x2 = 0.696 | x2 = 0.8476
303.15 K | 0.669 | 0.98 | 1.24 | 1.492 | 1.747 | 2
313.15 K | 0.601 | 0.814 | 1.03 | 1.218 | 1.408 | 1.599
323.15 K | 0.52 | 0.698 | 0.835 | 0.973 | 1.111 | 1.252

Cc1ccccn1 + CO
101 kPa
Settings | viscosity [mPa·s]
298.23 K, x1 = 0.4451 | 0.774
298.23 K, x1 = 0.5511 | 0.782
298.25 K, x1 = 0.1201 | 0.641
298.28 K, x1 = 0.6483 | 0.784
298.28 K, x1 = 0.8299 | 0.76
303.15 K, x1 = 0.2351 | 0.671
303.16 K, x1 = 0.1201 | 0.6
303.22 K, x1 = 0.6483 | 0.733
303.22 K, x1 = 0.8299 | 0.714
303.25 K, x1 = 0.4451 | 0.722
303.26 K, x1 = 0.5511 | 0.729
308.17 K, x1 = 0.1201 | 0.562
308.23 K, x1 = 0.6483 | 0.686
308.23 K, x1 = 0.8299 | 0.669
308.25 K, x1 = 0.5511 | 0.682
308.26 K, x1 = 0.4451 | 0.676
308.38 K, x1 = 0.2351 | 0.625
313.21 K, x1 = 0.2351 | 0.587
313.22 K, x1 = 0.1201 | 0.522
313.27 K, x1 = 0.6483 | 0.645
313.27 K, x1 = 0.8299 | 0.631
313.28 K, x1 = 0.4451 | 0.633
313.28 K, x1 = 0.5511 | 0.641
318.25 K, x1 = 0.2351 | 0.55
318.26 K, x1 = 0.1201 | 0.49
318.29 K, x1 = 0.6483 | 0.606
318.29 K, x1 = 0.8299 | 0.592
318.35 K, x1 = 0.5511 | 0.601
318.36 K, x1 = 0.4451 | 0.594

[Cl-].[Na+] + O
Settings | viscosity
293.15 K, 101.3 kPa, x1 = 0.02 | 1.079 mPa·s
293.15 K, 101.3 kPa, x1 = 0.03479 | 1.188 mPa·s
295.95 K, 100 kPa, x1 = 0.045 | 1.205 mPa·s
296.05 K, 100 kPa, x1 = 0.006 | 0.95 mPa·s
296.17 K, 100 kPa, x1 = 0.06928 | 1.448 mPa·s
296.24 K, 100 kPa, x1 = 0.06928 | 1.444 mPa·s
296.26 K, 100 kPa, x1 = 0.06928 | 1.444 mPa·s
296.5 K, 100 kPa, x1 = 0.045 | 1.192 mPa·s
296.51 K, 100 kPa, x1 = 0.045 | 1.191 mPa·s
296.65 K, 100 kPa, x1 = 0.008493 | 0.958 mPa·s and 0.96 mPa·s
296.77 K, 100 kPa, x1 = 0.06928 | 1.427 mPa·s
297.15 K, 100 kPa, x1 = 0.01884 | 1.001 mPa·s and 1.002 mPa·s
298.15 K, 100 kPa, x1 = 0.04394 | 1.132 mPa·s
298.15 K, 100 kPa, x1 = 0.05559 | 1.241 mPa·s
298.15 K, 101.3 kPa, x1 = 0.001798 | 0.8994 mPa·s
298.15 K, 101.3 kPa, x1 = 0.005732 | 0.9164 mPa·s
298.15 K, 101.3 kPa, x1 = 0.009 | 0.9256 mPa·s
298.15 K, 101.3 kPa, x1 = 0.01421 | 0.9571 mPa·s
298.15 K, 101.3 kPa, x1 = 0.02 | 0.9683 mPa·s
298.15 K, 101.3 kPa, x1 = 0.02116 | 0.9928 mPa·s
298.15 K, 101.3 kPa, x1 = 0.03479 | 1.071 mPa·s
298.15 K, 101.32 kPa, x1 = 0.09892 | 1.633 mPa·s
298.65 K, 100 kPa, x1 = 0.07389 | 1.412 mPa·s and 1.413 mPa·s and 1.41 mPa·s
300.65 K, 100 kPa, x1 = 0.08874 | 1.525 mPa·s
301.01 K, 100 kPa, x1 = 0.09185 | 1.546 mPa·s
301.02 K, 100 kPa, x1 = 0.09185 | 1.545 mPa·s
301.09 K, 100 kPa, x1 = 0.06928 | 1.299 mPa·s
301.12 K, 100 kPa, x1 = 0.06928 | 1.298 mPa·s
301.15 K, 100 kPa, x1 = 0.008493 | 0.868 mPa·s
301.25 K, 100 kPa, x1 = 0.01884 | 0.9164 mPa·s and 0.9176 mPa·s
301.59 K, 100 kPa, x1 = 0.045 | 1.071 mPa·s
301.67 K, 100 kPa, x1 = 0.045 | 1.067 mPa·s
301.68 K, 100 kPa, x1 = 0.045 | 1.069 mPa·s
301.71 K, 100 kPa, x1 = 0.09185 | 1.521 mPa·s
301.87 K, 100 kPa, x1 = 0.06928 | 1.277 mPa·s
303.15 K, 100 kPa, x1 = 0.02582 | 0.92 mPa·s
303.15 K, 101 kPa, x1 = 0.008924 | 0.8232 mPa·s
303.15 K, 101 kPa, x1 = 0.01768 | 0.8649 mPa·s
303.15 K, 101 kPa, x1 = 0.02626 | 0.911 mPa·s
303.15 K, 101.3 kPa, x1 = 0.001 | 0.807 mPa·s
303.15 K, 101.3 kPa, x1 = 0.009 | 0.8358 mPa·s
303.15 K, 101.3 kPa, x1 = 0.02 | 0.8758 mPa·s
303.15 K, 101.3 kPa, x1 = 0.03479 | 0.9703 mPa·s
303.65 K, 100 kPa, x1 = 0.04394 | 1.016 mPa·s and 1.019 mPa·s
304.15 K, 100 kPa, x1 = 0.05559 | 1.096 mPa·s and 1.095 mPa·s
308.15 K, 100 kPa, x1 = 0.07389 | 1.166 mPa·s
308.15 K, 101.3 kPa, x1 = 0.001798 | 0.7274 mPa·s
308.15 K, 101.3 kPa, x1 = 0.00359 | 0.7334 mPa·s
308.15 K, 101.3 kPa, x1 = 0.005732 | 0.7425 mPa·s
308.15 K, 101.3 kPa, x1 = 0.008927 | 0.7567 mPa·s
308.15 K, 101.3 kPa, x1 = 0.01421 | 0.7787 mPa·s
308.15 K, 101.3 kPa, x1 = 0.02116 | 0.81 mPa·s
308.65 K, 100 kPa, x1 = 0.07389 | 1.151 mPa·s and 1.152 mPa·s
308.66 K, 100 kPa, x1 = 0.06928 | 1.115 mPa·s and 1.116 mPa·s
308.68 K, 100 kPa, x1 = 0.06928 | 1.116 mPa·s
308.71 K, 100 kPa, x1 = 0.06928 | 1.113 mPa·s
308.73 K, 100 kPa, x1 = 0.06928 | 1.113 mPa·s
309.04 K, 100 kPa, x1 = 0.045 | 0.9262 mPa·s
309.11 K, 100 kPa, x1 = 0.045 | 0.926 mPa·s
309.26 K, 100 kPa, x1 = 0.045 | 0.9211 mPa·s
313.15 K, 100 kPa, x1 = 0.05559 | 0.926 mPa·s and 0.924 mPa·s
313.15 K, 101 kPa, x1 = 0.008924 | 0.6852 mPa·s
313.15 K, 101 kPa, x1 = 0.01768 | 0.7209 mPa·s
313.15 K, 101 kPa, x1 = 0.02626 | 0.759 mPa·s
313.15 K, 101.3 kPa, x1 = 0.001 | 0.668 mPa·s
313.15 K, 101.3 kPa, x1 = 0.009 | 0.6992 mPa·s
313.15 K, 101.3 kPa, x1 = 0.02 | 0.7327 mPa·s
313.15 K, 101.3 kPa, x1 = 0.03479 | 0.8126 mPa·s
313.15 K, 101.32 kPa, x1 = 0.1014 | 1.281 mPa·s
313.65 K, 100 kPa, x1 = 0.008493 | 0.679 mPa·s
313.65 K, 100 kPa, x1 = 0.02582 | 0.751 mPa·s and 0.75 mPa·s and 0.748 mPa·s
314.15 K, 100 kPa, x1 = 0.04394 | 0.834 mPa·s
317.65 K, 100 kPa, x1 = 0.08874 | 1.092 mPa·s and 1.096 mPa·s
318.15 K, 100 kPa, x1 = 0.07389 | 0.974 mPa·s and 0.97 mPa·s and 0.973 mPa·s
318.15 K, 101.3 kPa, x1 = 0.001798 | 0.6031 mPa·s
318.15 K, 101.3 kPa, x1 = 0.00359 | 0.6082 mPa·s
318.15 K, 101.3 kPa, x1 = 0.005732 | 0.6163 mPa·s
318.15 K, 101.3 kPa, x1 = 0.008927 | 0.6293 mPa·s
318.15 K, 101.3 kPa, x1 = 0.01421 | 0.6488 mPa·s
323.15 K, 101 kPa, x1 = 0.008924 | 0.5852 mPa·s
323.15 K, 101 kPa, x1 = 0.01768 | 0.617 mPa·s
323.15 K, 101 kPa, x1 = 0.02626 | 0.6491 mPa·s
323.15 K, 101.3 kPa, x1 = 0.009 | 0.6002 mPa·s
323.15 K, 101.3 kPa, x1 = 0.02 | 0.6302 mPa·s
323.15 K, 101.3 kPa, x1 = 0.03479 | 0.6611 mPa·s

Reference: the CheMixHub viscosity set
